Where a name gives a salt, the structure may show the parent alone. Read-outs that look alike come from different tables or passages of the source.
Tests used:
[1] = tested on: HEK293 cells; type: cell-based; settings: detergent 0.5% w/v, then 0.2% DB
[2] = tested on: HEK293 cells; experiment: CTAB modifier screen: vg recovery in clarified lysate and loose resin affinity elution; type: cell-based; settings: LCD, 0.5% w/v CTAB
Method: The modifiers were selected based on their potential to interfere with and inhibit non-specific binding of rAAV3B capsids to heparin sulfate proteoglycan receptors on cells and cell lysis debris. Using 10 mL cell culture aliquots, modifiers were delivered to the culture at the concentrations shown in Table 3 and mixed for 10 min at room temperature (RT) prior to addition of the CTAB lysis detergent. CTAB was added to a final concentration of 0.5% w/v. Fold improvement in productivity was calculated by dividing total vector genomes (vgs) measured by qPCR quantification of copies of the vector transgene in product produced by a test condition over total vgs produced using 0.5% octoxynol-9 and 0.2% DB as the control lysis and flocculation condition. Total vgs were measured in the clarified lysate and in eluate produced by loose resin affinity purification of the clarified lysate. Conditions which produced greater than 2-fold improvement are highlighted in bold in Table 3.

[3] = tested on: pseudo rabies virus (PRV)
[4] = cited from earlier work
[5] = tested on: HEK293 cells; experiment: CHAPS evaluated at larger scale (1 L bioreactor); type: cell-based; settings: final concentration 0.5% w/v
Method: CHAPS was identified as a potential detergent candidate in the small scale screens and was evaluated at a larger scale (1 L bioreactor) at a final concentration of 0.5% w/v.

[6] = tested on: Murine leukemia virus (MuLV)
[7] = No modifier, LCD (approximately 12E+6 cells/mL), rAAV3B vector
[8] = modifier 80 μM CSE (chondroitin sulfate E)
[9] = modifier 80 μM SOS (sucrose octasulfate)
[10] = modifier 400 ug/mL low molecular weight (LMW) Dextran
[11] = 0.025% CTAB, 90 mins, value from titer plate
[12] = 0.05% CTAB, 90 mins, value from large volume plating
[13] = 0.25% CTAB, 90 mins, value from large volume plating
[14] = 0.5% octoxynol-9, 90 mins, value from large volume plating

For CCCCCCCCCCCCCCCC[N+](C)(C)C.[Br-] [CTAB, cetyltrimethylammonium bromide], the “Fold improvement over octoxynol-9 and DB control (capsid recovery in clarified lysate)” value (“Fold improvement” for short) ([1]; No modifier, HCD (approximately 18E+6 cells/mL), rAAV3B vector) was 2.8 fold, the “Fold improvement” value [1, 7] was 1.6 fold and the “fold productivity over octoxynol-9/DB control - affinity elution” value (shortened to “fold productivity … - affinity elution”) [2, 8] was 0.05 fold. For the same compound, the “fold productivity over octoxynol-9/DB control - clarified lysate” value (shortened to “fold productivity … - clarified lysate”) [2, 8] was 1.22 fold, the “fold productivity … - affinity elution” value [2, 9] was 3.20 fold and the “fold productivity … - clarified lysate” value [2, 9] was 2.61 fold. The “fold productivity … - affinity elution” value [2, 10] was 1.20 fold, the “fold productivity … - clarified lysate” value [2, 10] was 0.14 fold and the “fold productivity … - affinity elution” value ([2]; modifier 6 mM ZnSO4) was 2.41 fold. For the same compound, the “fold productivity … - clarified lysate” value ([2]; modifier 6 mM ZnSO4) was 1.86 fold, the “fold productivity … - affinity elution” value ([2]; modifier 50 mM MgSO4) was 7.77 fold and the “fold productivity … - clarified lysate” value ([2]; modifier 50 mM MgSO4) was 3.21 fold. For the same compound, the “fold productivity … - affinity elution” value ([2]; no modifier) was 3.81 fold, the “fold productivity … - clarified lysate” value ([2]; no modifier) was 2.81 fold and the “Process demonstrated viral removal or inactivation (Log reduction >1)” value ([3]; 0.025% CTAB, 90 mins) was “Did not demonstrate inactivation”. For the same compound, the “Minimum reduction values Run 1” value [3, 11] was 0.71 ± 0.44 Log, the “Minimum reduction values Run 2” value [3, 11] was 0.71 ± 0.39 Log and the “Process demonstrated viral removal or inactivation (Log reduction >1)” value ([3]; 0.05% CTAB, 90 mins) was “Demonstrated inactivation”. For the same compound, the “Minimum reduction values Run 1” value [3, 12] was no less than 4.31 ± 0.27 Log, the “Minimum reduction values Run 2” value [3, 12] was no less than 4.67 ± 0.21 Log and the “Process demonstrated viral removal or inactivation (Log reduction >1)” value ([3]; 0.25% CTAB, 90 mins) was “Demonstrated inactivation”. The “Minimum reduction values Run 1” value [3, 13] was no less than 4.73 ± 0.25 Log, the “Minimum reduction values Run 2” value [3, 13] was no less than 4.73 ± 0.31 Log and the critical micelle concentration ([4]; in water in the presence of MgSO4) was “about 0.63 mM”. For the same compound, the critical micelle concentration ([4]; in water) was “about 1.04 mM”.

For C[C@H](CCC(=O)NCCC[N+](C)(C)CCCS(=O)(=O)[O-])[C@H]1CC[C@H]2[C@@H]3[C@H](O)C[C@@H]4C[C@H](O)CC[C@]4(C)[C@H]3C[C@H](O)[C@]12C [CHAPS, 3-[(3-cholamidopropyl)dimethylammonio]-1-propanesulfonate], the “Fold improvement” value ([1]; 0.2M Arginine modifier, LCD) was 1.0 fold, the “Fold improvement” value ([1]; 0.7M NaCl modifier, LCD) was 1.6 fold and the “Fold improvement” value [1, 7] was 2.1 fold. The “recovery improvement at larger scale” value [5] was “failed to provide the same recovery improvement at large scale as at small scale”.

In the case of CCCCCCCCCCCC(=O)N(C)CC(=O)[O-].[Na+] [sarkosyl], the “Fold improvement” value [1, 7] was 0.3 fold.

With C[C@H](CCC(=O)O)[C@H]1CC[C@H]2[C@@H]3CC[C@@H]4C[C@H](O)CC[C@]4(C)[C@H]3C[C@H](O)[C@]12C [DOC, deoxycholic acid sodium salt] the “Fold improvement” value [1, 7] was 0.1 fold.

With Octoxynol-9 [reference compound] the “Minimum reduction values Run 1” value [6] was no less than 4.43 ± 0.25 Log, the “Minimum reduction values Run 2” value [6] was no less than 4.49 ± 0.27 Log and the “Process demonstrated viral removal or inactivation (Log reduction >1)” value [6] was “Demonstrated inactivation”. The “Process demonstrated viral removal or inactivation (Log reduction >1)” value ([3]; 0.5% octoxynol-9, 90 mins) was “Demonstrated inactivation”, the “Minimum reduction values Run 1” value [3, 14] was no less than 4.43 ± 0.28 Log and the “Minimum reduction values Run 2” value [3, 14] was no less than 4.19 ± 0.18 Log.

For CCCCCCCCCCCCOS(=O)(=O)[O-].[Na+] [SDS, sodium dodecyl sulfate], the “Fold improvement” value ([1]; 0.2M Arginine modifier, LCD) was 0.9 fold, the “Fold improvement” value ([1]; 0.7M NaCl modifier, LCD) was 0.2 fold and the “Fold improvement” value [1, 7] was 0.1 fold.

For CCCCCCCCCCCC(=O)OCCOCCOCCOCCOCCOCCOCCOCCOCCOCCOCCOCCOCCOCCOCCOCCOCCOCCOCCOCCOCC(OCCOCCOCCOCCOCCOCCOCCOCCOCCOCCOCCOCCOCCOCCOCCOCCOCCOCCOCCOCCO)C1OCC(OCCOCCOCCOCCOCCOCCOCCOCCOCCOCCOCCOCCOCCOCCOCCOCCOCCOCCOCCOCCO)C1OCCOCCOCCOCCOCCOCCOCCOCCOCCOCCOCCOCCOCCOCCOCCOCCOCCOCCOCCOCCO (stereo not shown) [PS20, polysorbate 20], the “Fold improvement” value ([1]; 0.2M Arginine modifier, LCD) was 1.8 fold, the “Fold improvement” value ([1]; 0.7M NaCl modifier, LCD) was 0.7 fold and the “Fold improvement” value [1, 7] was 0.5 fold.
